In US9744203B2, “Application of composition in preparing health care product or medicine for preventing and treating leukopenia caused by radiotherapy and chemotherapy” (JIANGZHONG PHARMACEUTICAL CO., LTD., priority 2012, dated 2017):
Where “and” joins values, the source holds several entries; their conditions need not be identical. Identical values can stand only once.

Columns and labels:
Format in all cases: in vivo
[1] = test system: leucocyte reduction in mice induced by cyclophosphamide; assay: Bone marrow DNA content determination, mice injected with cyclophosphamide; conditions: cyclophosphamide model; absorbance at 268 nm, day 15; positive control batyl alcohol 100 mg/kg intragastric
Description: (§1) Mice were randomly divided into 6 groups with 10 animals per group, i.e., normal control group, model control group, positive control group, and groups on low, medium and high doses of Composition 1. The low-, medium- and high-dose groups were intragastrically given Composition 1 at a dose of 2.0 g crude drug/kg, 4.0 g crude drug/kg, and 12.0 g crude drug/kg, respectively; the positive control group was intragastrically given batyl alcohol (100 mg/kg) at a dose of 0.1 ml/10 g body weight; the normal control group and the model control group were intragastrically given an equivalent volume of distilled water; and the dosage regime lasted for 15 days with one dose per day. From day 9 of intragastrical administration, all mice in each group, except the normal control group, were given cyclophosphamide at a dose of 40 mg/kg each day via subcutaneous injection for 3 consecutive days. One hour after the intragastrical administration on day 15, blood and femurs were harvested for tests.
A 7 mm section was dissected from the middle of the right femur. The whole bone marrow was flushed into a centrifuge tube with a 10 mL solution of 0.005 mol/L CaCl2, placed in a refrigerator at 4° C. for 30 min, and then centrifuged at 2500 r/min for 15 min. […] The supernatant was removed and its absorbance at 268 nm was measured.

[2] = test system: leucocyte reduction in mice induced by cyclophosphamide; assay: Peripheral leucocyte assay, leucocyte reduction in mice induced by cyclophosphamide; conditions: cyclophosphamide model; positive control batyl alcohol 100 mg/kg intragastric, 15 days
Description: as §1
40 μL blood was drawn from the tail vein of the mice and transferred into a EDTA-K2 anticoagulative tube, into which 160 μL dilution liquid was added, and then assayed in an automatic blood cell analyzer.
Mice were randomly divided into 6 groups with 10 animals per group, i.e., normal control group, model control group, positive control group, and groups on low, medium and high doses of Composition 2. […]

[3] = test system: leucocyte reduction in mice induced by cytarabine; assay: Peripheral leucocyte assay, leucocyte reduction in mice induced by cytarabine; conditions: cytarabine model; positive control batyl alcohol 100 mg/kg intragastric, 15 days
Description: [Worded in the source for another target; used here, by the source, with some conditions changed.] as §1
(§2) 40 μL blood was drawn from the tail vein of the mice and transferred into a EDTA-K2 anticoagulative tube, into which 160 μL dilution liquid was added, and then assayed in an automatic blood cell analyzer. […]

[4] = test system: leucocyte reduction in mice induced by cytarabine; assay: Bone marrow nucleated cell count, mice injected with cytarabine; conditions: cytarabine model; one femur, day 15; positive control batyl alcohol 100 mg/kg intragastric
Description: [Worded in the source for another target; used here, by the source, with some conditions changed.] as §1
Mice were sacrificed by cervical dislocation. The left femur was removed and flushed with a 10 ml solution of 3% acetic acid to obtain the cells in the bone marrow. The number of cells in 4 large grids on a hemacytometer was counted, and the number was multiplied by 2.5×10^4 to obtain the BMC in one femur. […]

[5] = test system: leucocyte reduction in mice induced by X-ray radiation; assay: Bone marrow nucleated cell count, mice after X-ray radiation; conditions: X-ray radiation model; one femur; positive control batyl alcohol 100 mg/kg intragastric
[6] = test system: leucocyte reduction in mice induced by cyclophosphamide; assay: Bone marrow nucleated cell count, mice injected with cyclophosphamide; conditions: cyclophosphamide model; one femur, day 15; positive control batyl alcohol 100 mg/kg intragastric
Description: as §1
Mice were sacrificed by cervical dislocation. The left femur was removed and flushed with a 10 ml solution of 3% acetic acid to obtain the cells in the bone marrow. The number of cells in 4 large grids on a hemacytometer was counted, and the number was multiplied by 2.5×10^4 to obtain the BMC in one femur.

[7] = test system: leucocyte reduction in mice induced by X-ray radiation; assay: Peripheral leucocyte assay, leucocyte reduction in mice induced by X-ray radiation; conditions: X-ray radiation model; positive control batyl alcohol 100 mg/kg intragastric
Description: [Worded in the source for another target; used here, by the source, with some conditions changed.] as §1, §2

`CCCCCCCCCCCCCCCCCCOCC(O)CO` (stereo not shown) [Positive control, batyl alcohol] was tested, and the “Bone marrow DNA” value [1] was 0.610 ± 0.138 and 0.629 ± 0.150 and 0.625 ± 0.162 and 0.730 ± 0.150 and 0.755 ± 0.128 and 0.958 ± 0.138, the WBC after modeling [2] was 3.55 ± 1.21 ×10^9 and 4.64 ± 1.30 ×10^9 and 5.25 ± 1.30 ×10^9 and 6.13 ± 1.47 ×10^9 and 5.73 ± 1.60 ×10^9 and 6.25 ± 1.76 ×10^9 and the WBC after treatment [2] was 6.20 ± 1.82 ×10^9 and 7.34 ± 1.59 ×10^9 and 7.56 ± 1.80 ×10^9 and 8.23 ± 1.54 ×10^9 and 7.89 ± 1.60 ×10^9 and 8.96 ± 1.93 ×10^9. For the same molecule, the WBC after modeling [3] was 3.80 ± 1.03 ×10^9 and 4.67 ± 1.27 ×10^9 and 4.90 ± 1.43 ×10^9 and 4.16 ± 1.09 ×10^9 and 4.53 ± 1.28 ×10^9 and 6.62 ± 1.52 ×10^9, the WBC after treatment [3] was 6.54 ± 1.93 ×10^9 and 6.85 ± 1.70 ×10^9 and 7.10 ± 1.88 ×10^9 and 7.26 ± 1.90 ×10^9 and 7.54 ± 1.62 ×10^9 and 8.52 ± 1.55 ×10^9 and the “Bone marrow BCM” value [4] was 12.53 ± 2.24 ×10^6 and 13.95 ± 2.77 ×10^6 and 13.64 ± 2.19 ×10^6 and 14.32 ± 2.65 ×10^6 and 13.25 ± 2.31 ×10^6 and 13.58 ± 2.17 ×10^6. The “Bone marrow BCM” value [5] was 13.20 ± 2.02 ×10^6 and 12.43 ± 2.29 ×10^6 and 13.69 ± 2.65 ×10^6 and 14.57 ± 2.57 ×10^6 and 13.92 ± 2.57 ×10^6 and 14.78 ± 2.44 ×10^6, the “Bone marrow BCM” value [6] was 13.44 ± 2.36 ×10^6 and 11.87 ± 2.08 ×10^6 and 13.65 ± 2.42 ×10^6 and 14.73 ± 2.04 ×10^6 and 14.86 ± 2.28 ×10^6 and 15.72 ± 2.34 ×10^6 and the “WBC on day 8 after treatment” value [7] was 3.66 ± 1.05 ×10^9 and 5.60 ± 1.28 ×10^9 and 5.87 ± 1.62 ×10^9 and 5.80 ± 1.44 ×10^9 and 5.32 ± 1.54 ×10^9 and 5.53 ± 1.28 ×10^9. For the same molecule, the “WBC on day 15 after treatment” value [7] was 6.92 ± 1.98 ×10^9 and 7.04 ± 1.87 ×10^9 and 7.49 ± 1.52 ×10^9 and 7.88 ± 1.61 ×10^9 and 7.80 ± 1.43 ×10^9 and 8.03 ± 1.59 ×10^9.
